Data on 5 substances can be found in patent publication US9833497B2, “Human originated EGF domain proteins and use of the same” (CHENGDU SOURCEBIO LIMITED-LIABILITY COMPANY, priority 2013, dated 2017).

Holding throughout (assay type): cell-based
One test has as its system Enterobacter cloacae. Briefly: MIC against Gram-negative bacteria: Enterobacter cloacae. Conditions: 5×10^5 CFU/mL. Put shortly:
(§1)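 Purified recombinant human EGF domain proteins are tested by broth dilution in LB against a 5×10^5 CFU/mL inoculum, with two-fold serial dilutions run in triplicate. Plates are incubated at 37° C with shaking, and the MIC is read as the lowest protein concentration without growth.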

Another test concerns Serratia marcescens. Briefly: MIC against Gram-negative bacteria: Serratia marcescens. To be noted: 5×10^5 CFU/mL. Put shortly: as §1
In another test the test system is E. coli BL21. Briefly: MIC against Gram-negative bacteria: E. coli BL21. Conditions: 5×10^5 CFU/mL. Put shortly:
as §1

Another test relates to Citrobacter diversus. Briefly: MIC against Gram-negative bacteria: Citrobacter diversus. Conditions: 5×10^5 CFU/mL. In outline:
as §1

A further test has as its system Moraxella catarrhalis. Briefly: MIC against Gram-negative bacteria: Moraxella catarrhalis. Conditions: 5×10^5 CFU/mL. In outline: as §1
For the next test, the system named is Proteus vulgaris. Briefly: MIC against Gram-negative bacteria: Proteus vulgaris. To be noted: 5×10^5 CFU/mL. In outline: as §1
The subject of the next test is Proteus mirabilis. Briefly: MIC against Gram-negative bacteria: Proteus mirabilis. Conditions: 5×10^5 CFU/mL. Put shortly: as §1
A further test has as its system E. coli DH5α. Briefly: Antibacterial activity: MIC and growth curve against E. coli DH5α in 96-well plate. To be noted: minimal inhibitory concentration against E. coli DH5α; 96-well plate, 5×10^5 CFU/mL, 37° C., judged after 8 h. Put shortly: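 Log-phase DH5α (OD600 about 0.5, 37° C, 185 rpm in LB) was pelleted, resuspended in fresh LB and seeded at 5×10^5 CFU/mL with recombinant protein at 50, 25 and 12.5 μg/mL (two-fold series), in triplicate. Plates were shaken at 175 rpm, 37° C, and OD600 was read every 30 min. MIC was the lowest concentration with no growth.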

For a further test, the system named is Aeromonas hydrophila. Briefly: MIC against Gram-negative bacteria: Aeromonas hydrophila. To be noted: 5×10^5 CFU/mL. In outline: as §1
In another test the test system is Pseudomonas aeruginosa. Briefly: MIC against Gram-negative bacteria: Pseudomonas aeruginosa. Conditions: 5×10^5 CFU/mL. In outline: as §1
The test system of a further test is Klebsiella pneumonia. Briefly: MIC against Gram-negative bacteria: Klebsiella pneumonia. Conditions: 5×10^5 CFU/mL. In outline: as §1
[1] abbreviates: Enterobacter cloacae, 96-well plate, 37° C., 10 h.
The mark [2] stands for this setting: Serratia marcescens, 96-well plate, 37° C., 10 h.
Where [3] appears, read: Citrobacter diversus, 96-well plate, 37° C., 10 h.
The mark [4] stands for this setting: Moraxella catarrhalis, 96-well plate, 37° C., 10 h.
Where [5] appears, read: Proteus vulgaris, 96-well plate, 37° C., 10 h.
Where [6] appears, read: Proteus mirabilis, 96-well plate, 37° C., 10 h.
The mark [7] stands for this setting: Aeromonas hydrophila, 96-well plate, 37° C., 10 h.
Where [8] appears, read: Pseudomonas aeruginosa, 96-well plate, 37° C., 10 h.
[9] abbreviates: Klebsiella pneumonia, 96-well plate, 37° C., 10 h.
The mark [10] stands for this setting: 10 h cultivation at 37° C., two-fold serial dilution.

“PRT1471 (GKNWCEEDMENGGCEYLCLPAPQINDHSPKYTCSCPSGYNVEENGRDCQ; listed as Homo sapiens)”: in the test on Enterobacter cloacae (Enterobacter cloacae, 10 h cultivation at 37° C.), the “MIC against E. cloacae” value stood at 50 µg/mL. The “MIC against S. marcescens” value in the test with Serratia marcescens (Serratia marcescens, 10 h cultivation at 37° C.) worked out at 25 µg/mL. For the same substance, the “MIC against E. coli BL21” value against E. coli BL21 (10 h cultivation at 37° C.) is 25 µg/mL. In addition, the “MIC against C. diversus” value in the test with Citrobacter diversus (Citrobacter diversus, 10 h cultivation at 37° C.) is 50 µg/mL. Further, the “MIC against M. catarrhalis” value against Moraxella catarrhalis (Moraxella catarrhalis, 10 h cultivation at 37° C.) is 25 µg/mL. In addition, the “MIC against P. vulgaris” value in the test on Proteus vulgaris (Proteus vulgaris, 10 h cultivation at 37° C.) was 50 µg/mL. The “MIC against P. mirabilis” value against Proteus mirabilis (Proteus mirabilis, 10 h cultivation at 37° C.) amounted to 25 µg/mL. The MIC (usually the smallest concentration in the dilution series that meets the test's criterion for growth inhibition) against E. coli DH5α came to 12.5 µg/mL. Besides, in the test on Aeromonas hydrophila (Aeromonas hydrophila, 10 h cultivation at 37° C.), the “MIC against A. hydrophila” value worked out at 25 µg/mL. In addition, in the test on Pseudomonas aeruginosa (Pseudomonas aeruginosa, 10 h cultivation at 37° C.), the “MIC against P. aeruginosa” value was 50 µg/mL. Also, the “MIC against K. pneumonia” value with Klebsiella pneumonia (Klebsiella pneumonia, 10 h cultivation at 37° C.) turned out to be 12.5 µg/mL.

Take “PRT146 (DRDECSFQPGPCSTLVQCFNTQGSFYCGACPTGWQGNGYICE; listed as Homo sapiens)”: the “MIC (μg/mL) E. cloacae” value with Enterobacter cloacae (E. cloacae, 10 h cultivation at 37° C.) was 12.5 µg/mL. The “MIC (μg/mL) S. marcescens” value against Serratia marcescens (S. marcescens, 10 h cultivation at 37° C.) worked out at 25 µg/mL. Further, the “MIC (μg/mL) E. coli BL21” value against E. coli BL21 (10 h cultivation at 37° C.) came to 50 µg/mL. Moreover, in the test with Citrobacter diversus (C. diversus, 10 h cultivation at 37° C.), the “MIC (μg/mL) C. diversus” value turned out to be 25 µg/mL. Also, the “MIC (μg/mL) M. catarrhalis” value in the test with Moraxella catarrhalis (M. catarrhalis, 10 h cultivation at 37° C.) is 12.5 µg/mL. The “MIC (μg/mL) P. vulgaris” value with Proteus vulgaris (P. vulgaris, 10 h cultivation at 37° C.) is 12.5 µg/mL. For the same substance, the “MIC (μg/mL) P. mirabilis” value with Proteus mirabilis (P. mirabilis, 10 h cultivation at 37° C.) was 25 µg/mL. Moreover, the MIC in the test on E. coli DH5α came to 12.5 µg/mL. For the same substance, in the test with Aeromonas hydrophila (A. hydrophila, 10 h cultivation at 37° C.), the “MIC (μg/mL) A. hydrophila” value was 12.5 µg/mL. In the test on Pseudomonas aeruginosa (P. aeruginosa, 10 h cultivation at 37° C.), the “MIC (μg/mL) P. aeruginosa” value was 12.5 µg/mL. For the same substance, the “MIC (μg/mL) K. pneumonia” value against Klebsiella pneumonia (K. pneumonia, 10 h cultivation at 37° C.) amounted to 50 µg/mL.

For the substance “PRT1262 (DVDECSMSNGSCDQGCVNTKGSYECVCPPGRRLHWNGKDCV; listed as Homo sapiens)”, in the test on Enterobacter cloacae (setting [1]), the “MIC against E. cloacae” value was 12.5 µg/mL. In the test with Serratia marcescens (setting [2]), the “MIC against S. marcescens” value turned out to be 25 µg/mL. Besides, in the test on E. coli BL21 (96-well plate, 37° C., 10 h), the “MIC against E. coli BL21” value was determined as 25 µg/mL. In the test on Citrobacter diversus (setting [3]), the “MIC against C. diversus” value worked out at 12.5 µg/mL. The “MIC against M. catarrhalis” value in the test on Moraxella catarrhalis (setting [4]) turned out to be 50 µg/mL. In the test with Proteus vulgaris (setting [5]), the “MIC against P. vulgaris” value was determined as 50 µg/mL. Moreover, the “MIC against P. mirabilis” value in the test on Proteus mirabilis (setting [6]) was 12.5 µg/mL. In addition, the MIC against E. coli DH5α is 12.5 µg/mL. In addition, the “MIC against A. hydrophila” value with Aeromonas hydrophila (setting [7]) came out at 50 µg/mL. Also, the “MIC against P. aeruginosa” value with Pseudomonas aeruginosa (setting [8]) worked out at 12.5 µg/mL. In the test with Klebsiella pneumonia (setting [9]), the “MIC against K. pneumonia” value was 25 µg/mL.

In the case of “PRT132 (ISDRCLPNYCEHGGECSQSWSTFHCNCTNTGYRGATCH; listed as Homo sapiens)”, the “MIC (μg/mL) E. cloacae” value in the test on Enterobacter cloacae (setting [1]) amounted to 25 µg/mL. The “MIC (μg/mL) S. marcescens” value against Serratia marcescens (setting [2]) was found to be 12.5 µg/mL. For the same substance, the “MIC (μg/mL) E. coli BL21” value in the test on E. coli BL21 (96-well plate, 37° C., 10 h) is 12.5 µg/mL. In addition, the “MIC (μg/mL) C. diversus” value in the test with Citrobacter diversus (setting [3]) was found to be 25 µg/mL. In the test with Moraxella catarrhalis (setting [4]), the “MIC (μg/mL) M. catarrhalis” value turned out to be 12.5 µg/mL. Moreover, the “MIC (μg/mL) P. vulgaris” value with Proteus vulgaris (setting [5]) amounted to 50 µg/mL. The “MIC (μg/mL) P. mirabilis” value in the test on Proteus mirabilis (setting [6]) was determined as 25 µg/mL. Further, the MIC with E. coli DH5α amounted to 25 µg/mL. Besides, in the test with Aeromonas hydrophila (setting [7]), the “MIC (μg/mL) A. hydrophila” value amounted to 50 µg/mL. In the test on Pseudomonas aeruginosa (setting [8]), the “MIC (μg/mL) P. aeruginosa” value was 12.5 µg/mL. The “MIC (μg/mL) K. pneumonia” value in the test with Klebsiella pneumonia (setting [9]) came to 12.5 µg/mL.

As for “PRT1051 (EQKLCKLRKGNCSSTVCGQDLQSHLCMCAEGYALSRDRKYCE; listed as Homo sapiens)”, in the test on Enterobacter cloacae (setting [10]), the “MIC E. cloacae” value came out at 25 µg/mL. For the same substance, the “MIC S. marcescens” value with Serratia marcescens (setting [10]) was determined as 50 µg/mL. The “MIC E. coli BL21” value with E. coli BL21 (setting [10]) worked out at 12.5 µg/mL. In the test with Citrobacter diversus (setting [10]), the “MIC C. diversus” value stood at 12.5 µg/mL. Moreover, the “MIC M. catarrhalis” value against Moraxella catarrhalis (setting [10]) is 12.5 µg/mL. For the same substance, in the test on Proteus vulgaris (setting [10]), the “MIC P. vulgaris” value came to 12.5 µg/mL. Further, the “MIC P. mirabilis” value in the test with Proteus mirabilis (setting [10]) is 50 µg/mL. In the test with E. coli DH5α, this substance came in with an MIC of 50 µg/mL. In addition, the “MIC A. hydrophila” value in the test on Aeromonas hydrophila (setting [10]) is 12.5 µg/mL. Further, the “MIC P. aeruginosa” value in the test with Pseudomonas aeruginosa (setting [10]) came to 25 µg/mL. Besides, the “MIC K. pneumonia” value in the test with Klebsiella pneumonia (setting [10]) is 12.5 µg/mL.
